According to US7858620B2, “Cyanoisoquinoline” (H. Lundbeck A/S, priority 2007, dated 2010):

Legend:
PDE10A enzyme = molecular target: T1, PDE10A enzyme (Homo sapiens, UniProt Q9Y233); assay: PDE10A inhibition assay, SPA; assay type: biochemical; conditions: column head 2,1334003; unit inferred, nM
T1 construct: made in house; host or cells: E. coli BL21(DE3)
Procedure: Active PDE10A enzyme is prepared in a number of ways for use in PDE assays (Loughney, K. et al. Gene 1999, 234, 109-117; Fujishige, K. et al. Eur J Biochem. 1999, 266, 1118-1127 and Soderling, S. et al. Proc. Natl. Acad. Sci. 1999, 96, 7071-7076). PDE10A can be expressed as full-length proteins or as truncated proteins, as long as they express the catalytic domain. PDE10A can be prepared in different cell types, for example insect cells or E. coli. An example of a method to obtain catalytically active PDE10A is as follows: The catalytic domain of human PDE10A (amino acids 440-779 from the sequence with accession number NP 006652) is amplified from total human brain total RNA by standard RT-PCR and is cloned into the BamH1 and Xho1 sites of the pET28a vector (Novagen). Expression in coli is performed according to standard protocols. Briefly, the expression plasmids are transformed into the BL21(DE3) E. coli strain, and 50 mL cultures inoculated with the cells allowed to grow to an OD600 of 0.4-0.6 before protein expression is induced with 0.5 mM IPTG. Following induction, the cells are incubated overnight at room temperature, after which the cells are collected by centrifugation. Cells expressing PDE10A are resuspended in 12 mL (50 mM TRIS-HCl-pH8.0, 1 mM MgCl2 and protease inhibitors). The cells are lysed by sonication, and after all cells are lysed, TritonX100 is added according to Novagen protocols.
PDE10A and Pde3A assays can for example be performed as follows: PDE10A and Pde3A assays are performed in 60 uL samples containing a fixed amount of the relevant PDE enzyme (sufficient to convert 20-25% of the cyclic nucleotide substrate), a buffer (50 mM HEPES7.6; 10 mM MgCl2; 0.02% Tween20), 0.1 mg/ml BSA, 225 pCi of ^3H-labelled cyclic nucleotide substrate, tritium labeled cAMP to a final concentration of 5 nM and varying amounts of inhibitors. Reactions are initiated by addition of the cyclic nucleotide substrate, and reactions are allowed to proceed for one hr at room temperature before being terminated through mixing with 15 uL 8 mg/mL yttrium silicate SPA beads (Amersham). The beads are allowed to settle for one hr in the dark before the plates are counted in a Wallac 1450 Microbeta counter. The measured signal can be converted to activity relative to an uninhibited control (100%) and IC50 values can be calculated using the Xlfit extension to EXCEL.

catalepsy in rats = conditions: cited from earlier work
[1] = test system: PCP induced hyperactivity in rats; conditions: cited from earlier work
[2] = test system: amphetamine induced hyperactivity; conditions: rat, in vivo; cited from earlier work

T1 sequence (Q9Y233 716-1055): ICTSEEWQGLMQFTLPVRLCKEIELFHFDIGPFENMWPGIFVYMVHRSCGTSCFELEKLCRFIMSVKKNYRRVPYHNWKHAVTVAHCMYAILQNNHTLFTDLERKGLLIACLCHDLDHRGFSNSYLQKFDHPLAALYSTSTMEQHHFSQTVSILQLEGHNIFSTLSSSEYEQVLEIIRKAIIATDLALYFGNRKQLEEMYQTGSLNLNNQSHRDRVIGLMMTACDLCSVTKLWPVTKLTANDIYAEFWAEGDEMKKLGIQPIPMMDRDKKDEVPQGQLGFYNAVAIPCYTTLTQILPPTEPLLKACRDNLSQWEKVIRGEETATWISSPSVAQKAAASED

Row | SMILES | IC50 (PDE10A enzyme) [nM] | catalepsy on its own (catalepsy in rats; alone) | effect on cataleptic effect of haloperidol (catalepsy in rats; with D2 receptor antagonist haloperidol) | hyperactivity induced by PCP [1] | reduction of amphetamine induced hyperactivity [2]
1 | COc1cc2c(C#N)cnc(N3CCNC(c4ccc(OC)c(C(F)(F)F)c4)C3)c2cc1OC (stereo not shown) [Compound 68, 6,7-Dimethoxy-1-[3-(4-methoxy-3-trifluoromethyl-phenyl)-piperazin-1-yl]-isoquinoline-4-carbonitrile] | 440 | – | – | – | –
2 | CCOc1ccc(C2CN(c3ncc(C#N)c4cc(OC)c(OC)cc34)CCN2)c(C)c1 (stereo not shown) [Compound 69, 1-[3-(4-Ethoxy-2-methyl-phenyl)-piperazin-1-yl]-6,7-dimethoxy-isoquinoline-4-carbonitrile] | 790 | – | – | – | –
3 | COc1ccc(C2CN(c3ncc(C#N)c4cc(OC)c(OC)cc34)CCN2)cc1NC(C)=O (stereo not shown) [Compound 70, N-{5-[4-(4-Cyano-6,7-dimethoxy-isoquinolin-1-yl)-piperazin-2-yl]-2-methoxy-phenyl}-acetamide] | 66 | – | – | – | –
4 | COc1ccc(Cc2nccc3cc(OC)c(OC)cc23)cc1OC [Papaverin] | – | did not cause catalepsy on its own | potentiated the cataleptic effect | reduced hyperactivity | insignificant
